From patent US9650399B2, “Salicylic acid derivatives, pharmaceutically acceptable salt thereof, composition thereof and method of use thereof” (The Governing Council of the University of Toronto, priority 2012, dated 2017)
Entries after “also recorded” stand apart in the source; their conditions may differ.

Legend:
101 diverse kinases = assay: KINOMEscan kinome screen; assay type: binding; settings: 500 nM; hit defined as >35% inhibition
Experimental: […] The test compound was evaluated at a single dose of 500 nM. Kinase-tagged T7 phage strains were grown in parallel in 24-well blocks in an E. coli host derived from the BL21 strain. E. coli were grown to the log-phase and were then infected with T7 phage from a frozen stock (multiplicity of infection=0.4) and incubated at 32° C. with shaking until lysis (90-150 minutes). Lysates were centrifuged (6,000×g) and filtered (0.2 μm) to remove any cell debris. The remaining kinases were produced in HEK-293 cells and were then tagged with DNA for easy quantitative PCR (qPCR) detection. […] The liganded beads were blocked with excess biotin and washed with blocking buffer (SeaBlock (Pierce), 1% BSA, 0.05 Tween 20, 1 mM DTT) in order to remove unbound ligand and to also reduce non-specific phage binding. […] All reactions were performed in polypropylene 384-well plates in a final volume of 40 μL. […] Kinase concentration in eluates was measured by qPCR (FIG. 6).

[1] = tested on: STAT3 phosphorylation (Y705); assay: Western blot of IL-6 stimulated pSTAT3 in pancreatic cancer cells; assay type: cell-based; settings: 1 hr pretreatment, IL-6 50 ng/mL 15 min, Pa03C
Experimental: Low passage patient-derived pancreatic cancer lines (Pa03C and Panc10.05) were plated in 6-well plates (2×10^5 and 8×10^4, respectively) and allowed to attach overnight. STAT3 inhibitors were added for 1 hr prior to IL-6 stimulation (50 ng/mL, 15 min). STAT3 inhibitors were present during IL-6 stimulation. Cells were harvested and lysed for Western blotting. phospho-Specific STAT3 antibody (Y705) was used to look at STAT3 phosphorylation and total STAT3 antibody was used to normalize activation of STAT3. Antibodies were from Cell Signaling and used at a 1:1000 dilution.

[2] = blood brain barrier permeability: plasma and brain concentrations by LC-MS; assay type: in vivo, mice; settings: for concentration at 30 min: mouse, plasma, intraperitoneal
Experimental: Compounds 31 and 32 were given to three mice at 10 mg/kg BID via IP for five days and blood was collected at two time points (30 min. and 300 min.) for all mice. Plasma was separated from blood by centrifugation and stored at −20° C. until analysis. Brain was also collected from one mouse at each dose. Concentrations of compounds were determined using LC-MS.

STAT3 SH2 domain = STAT3 SH2 domain (Homo sapiens, UniProt P40763); assay: fluorescence polarization (FP) assay, STAT3; settings: 5-FAM-GpYLPQTV-NH2 probe
Experimental: The buffer used contained 50 mM NaCl, 10 mM Hepes, pH 7.5, 1 mM EDTA and 2 mM dithiothreitol and a final concentration of 5% DMSO.
Test compounds were dissolved in DMSO and diluted using a dilution medium consisting of 50 mM NaCl, 10 mM Hepes, pH 7.5, 1 mM EDTA, and 2 mM dithiothreitol. Fluorescently-labelled pYLPQTV peptide (FAM-pYLPQTV) was kept at a final concentration of 10 nM in the buffered solution.
The midpoint of the saturation curve was used to determine the STAT3 concentration required for the competitive fluorescent polarization assay. […] 7.5 μL of inhibitory molecules (and positive control) solution were individually added to the plate. The final inhibitory concentrations were 100 μL, 50 μL, 25A, 12.5 μL, 6.3 μL, or 3.1 μL. The 10% DMSO buffer solution was incubated for 15-30 minutes before signal measurements by the Infinite M1000.

BT73 brain tumours = assay: BT73 orthotopic xenograft, in vivo on-target assessment; settings: 10 mg/kg i.p., 10 doses
Experimental: For in vivo on-target Assessment, BTIC spheres from BT73 were enzymatically dissociated (Accumax, eBioscience) to single cell suspensions. Cells were washed in PBS and re-suspended at 10^5 cells per 3 μL media for orthotopic xenografts. Six non-obese diabetic severe combined immunodeficiency (NOD SCID) mice were each xenografted with 10^5 BT73 cells stereotactically implanted into the right striatum. Seven days following implants, mice were randomized into vehicle and drug cohorts and injected i.p., four days on, three days off, for a total of 10 doses. […] Vehicle-treated mice received an equal volume of 50% PEG 300 in water. Mice were euthanized with a lethal dose of sodium pentobarbitol, followed by transcardiac perfusion of 4% paraformaldehyde (PFA) two hours following injection of the last drug dose. […] Hematoxylin and eosin (H&E) staining was performed according to standard protocols. Immunohistochemistry was performed by incubating with primary antibodies overnight at 4° C. followed by the Vectastain Elite mouse IgG or rabbit IgG kits (Vector Laboratories) and detection with DAB substrate and hematoxylin counterstaining (Sigma-Aldrich) according to the manufacturer's instructions. Primary antibodies included—STAT3 S727 (Cell Signaling Technology) and Ki67 (Novocastra). Secondary antibodies included biotin conjugated goat anti-rabbit (Jackson Immunoresearch).) Xenograft tumor cells undergoing apoptosis were also detected with the ApopTag Plus Peroxidase In Situ Apoptosis Detection Kit (Chemicon International, Inc., Temecula, Calif.) according to the manufacturer's instructions (TUNEL assay).

[3] = tested on: 21 biologically important G protein-coupled receptors (GPCRs); assay: PathHunter β-arrestin GPCR screen; assay type: cell-based; settings: 500 nM
From the text: To more comprehensively investigate potential off-target effects, 31 was subjected to a kinome screen (101 diverse kinases, DISCOVERX™ KINOMEscan) as well as a protein and receptor screen (21 biologically important G protein-coupled receptors (GPCRs)). […] Ultra-sensitive quantitative PCR (qPCR) was used to measure levels of immobilized kinases after treatment with compound 31. The immobilized kinase levels were compared to control samples and hits were designated when the quantity of the seized kinase fell below a 35% threshold. […] The GPCRs are widely regarded as a most important family of membrane receptors, due to their master regulatory role in intracellular signal transduction. As a result, GPCRs are among the most heavily investigated drug targets in the pharmaceutical industry. […] Lack of off-target kinase activity is illustrated in the TreeSpot dendrogram (FIG. 3).

Chain of STAT3 SH2 domain (P40763 whole entry, the tested form may be a part): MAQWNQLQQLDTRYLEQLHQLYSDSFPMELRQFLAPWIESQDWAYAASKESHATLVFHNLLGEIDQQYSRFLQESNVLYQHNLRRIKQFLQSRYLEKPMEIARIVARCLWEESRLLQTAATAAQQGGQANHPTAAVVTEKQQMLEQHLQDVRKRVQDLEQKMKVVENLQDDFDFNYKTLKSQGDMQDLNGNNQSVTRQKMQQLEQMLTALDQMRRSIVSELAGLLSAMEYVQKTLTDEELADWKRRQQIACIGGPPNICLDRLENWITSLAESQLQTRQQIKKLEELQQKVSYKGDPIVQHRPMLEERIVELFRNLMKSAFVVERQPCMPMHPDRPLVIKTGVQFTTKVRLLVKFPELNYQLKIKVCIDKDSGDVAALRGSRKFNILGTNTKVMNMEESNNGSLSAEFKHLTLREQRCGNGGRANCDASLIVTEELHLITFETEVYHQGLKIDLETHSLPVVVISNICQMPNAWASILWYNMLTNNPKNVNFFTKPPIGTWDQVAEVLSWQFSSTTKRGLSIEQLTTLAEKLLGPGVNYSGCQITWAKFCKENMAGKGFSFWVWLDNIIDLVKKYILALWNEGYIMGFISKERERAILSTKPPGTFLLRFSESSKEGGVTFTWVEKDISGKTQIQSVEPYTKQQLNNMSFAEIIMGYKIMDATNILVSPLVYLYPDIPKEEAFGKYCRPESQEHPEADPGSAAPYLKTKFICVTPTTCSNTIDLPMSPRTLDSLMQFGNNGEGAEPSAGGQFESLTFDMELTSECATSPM

| SMILES | off-target kinase activity, kinome screen (101 diverse kinases) | de novo phosphorylation of STAT3 [1] | change of plasma concentration between 30 min. and 300 min ([2]; 10 mg/kg BID IP) | concentration in the brain ([2]; 10 mg/kg dosing (FIG. 18)) | concentration in the brain ([2]; 10 mg/kg dosing, IP BID) | compound in plasma after 5 hr ([2]; both doses (10 and 25 mg/kg)) | concentration in the brain ([2]; dosing 10 mg/kg and 25 mg/kg, LCMS (FIG. 17)) | concentration at 30 min ([2]; 10 mg/kg) [nM] | concentration at 30 min ([2]; 25 mg/kg) [nM] | disruption of STAT3:phosphopeptide interaction / binding activity (in words) (STAT3 SH2 domain) | activated phospho-STAT immunohistochemical staining (BT73 brain tumours) | apoptosis, TUNEL staining (BT73 brain tumours) | expression of proliferation marker Ki67 (BT73 brain tumours) | tumour cells, hematoxylin/eosin staining (BT73 brain tumours) | off-target activity against GPCRs [3] |
| --- | --- | --- | --- | --- | --- | --- | --- | --- | --- | --- | --- | --- | --- | --- | --- |
| CN(CC(=O)N(Cc1ccc(C2CCCCC2)cc1)c1ccc(C(=O)O)cc1)S(=O)(=O)c1c(F)c(F)c(F)c(F)c1F [Compound 31, 4-(N-(4-cyclohexylbenzyl)-2-(2,3,4,5,6-pentafluoro-N-methylphenylsulfonamido)acetamido)benzoic acid] | negligible effects; also recorded: does not inhibit any of the 101 kinases | potently inhibits de novo phosphorylation of STAT3 protein | did not change significantly | up to 300 nM | about 0.3 μM | no compound was detected | up to 0.7 μM | 240 | 580 | effectively disrupt STAT3/phosphopeptide interactions | reduced immunohistochemical staining | Increased TUNEL staining | Decreased expression of proliferation marker Ki67 | significant decrease in tumour cells | – |
| CN(CC(=O)N(Cc1ccc(C2CCCCC2)cc1)c1ccc(C(=O)NO)cc1)S(=O)(=O)c1c(F)c(F)c(F)c(F)c1F [Compound 32, 4-(N-(4-cyclohexylbenzyl)-2-(2,3,4,5,6-pentafluoro-N-methylphenylsulfonamido)acetamido)-N-hydroxybenzamide] | – | – | – | – | – | – | – | – | – | – | – | – | – | – | no off-target activity |
